Measurements: US11578061B2, “Inhibitors of LRRK2 kinase” (Halia Therapeutics, Inc., priority 2021, dated 2023)

Target: recombinant human LRRK2 (catalytic domain only [amino acids 970-2527], GST-tagged) (Homo sapiens (Human), UniProt Q5S007)
Experiment: LRRK2 Enzymatic Assay
Assay type: biochemical
Settings: LRRKtide substrate, [32P]-ATP
Experimental: LRRKtide substrate (peptide sequence RLGRDKYKTLRQIRQ, derived from human ezrin [amino acids 561-573], moesin [amino acids 539-553] and radixin [amino acids 558-570], obtained from SignalChem, catalogue #L10-58, reconstituted in 20 mM Tris-HCl at pH 7.5 to a final concentration of 1 mg/mL, assay concentration 20 μM) and recombinant human LRRK2 (catalytic domain only [amino acids 970-2527], GST-tagged, expressed in insect cells, obtained from ThermoFisher Scientific, catalogue #PV4874, 0.35 mg/mL, assay concentration 30 nM) were mixed in assay buffer (20 mM Hepes pH 7.5, 10 mM MgCl2, 1 mM EGTA, 0.02% Brij35, 0.02 mg/ml BSA, 0.1 mM Na3VO4, 2 mM DTT, 1% DMSO). Compounds of interest (in DMSO, serial 3-fold dilution from 10 μM to 0.5 nM) or control (1% DMSO) were dispensed into the kinase reaction mixture by Acoustic technology (Echo550; nanoliter range). After incubation at room temperature for 20 minutes, the kinase reaction was initiated by addition of [^32P]-ATP (Specific activity 10 μCi/μl) and the mixture was incubated at room temperature for 2 hours. The reaction was then stopped by spotting the reaction mixture on strips of phosphocellulose P81 paper. Following washing, the radioactivity of the P81 paper was measured and kinase activity data were expressed as the percent remaining kinase activity in test samples compared to vehicle (dimethyl sulfoxide) reactions. IC50 values and curve fits were obtained using Prism (GraphPad Software).

Sequence of recombinant human LRRK2 (catalytic domain only [amino acids 970-2527], GST-tagged) (Q5S007 970-2527): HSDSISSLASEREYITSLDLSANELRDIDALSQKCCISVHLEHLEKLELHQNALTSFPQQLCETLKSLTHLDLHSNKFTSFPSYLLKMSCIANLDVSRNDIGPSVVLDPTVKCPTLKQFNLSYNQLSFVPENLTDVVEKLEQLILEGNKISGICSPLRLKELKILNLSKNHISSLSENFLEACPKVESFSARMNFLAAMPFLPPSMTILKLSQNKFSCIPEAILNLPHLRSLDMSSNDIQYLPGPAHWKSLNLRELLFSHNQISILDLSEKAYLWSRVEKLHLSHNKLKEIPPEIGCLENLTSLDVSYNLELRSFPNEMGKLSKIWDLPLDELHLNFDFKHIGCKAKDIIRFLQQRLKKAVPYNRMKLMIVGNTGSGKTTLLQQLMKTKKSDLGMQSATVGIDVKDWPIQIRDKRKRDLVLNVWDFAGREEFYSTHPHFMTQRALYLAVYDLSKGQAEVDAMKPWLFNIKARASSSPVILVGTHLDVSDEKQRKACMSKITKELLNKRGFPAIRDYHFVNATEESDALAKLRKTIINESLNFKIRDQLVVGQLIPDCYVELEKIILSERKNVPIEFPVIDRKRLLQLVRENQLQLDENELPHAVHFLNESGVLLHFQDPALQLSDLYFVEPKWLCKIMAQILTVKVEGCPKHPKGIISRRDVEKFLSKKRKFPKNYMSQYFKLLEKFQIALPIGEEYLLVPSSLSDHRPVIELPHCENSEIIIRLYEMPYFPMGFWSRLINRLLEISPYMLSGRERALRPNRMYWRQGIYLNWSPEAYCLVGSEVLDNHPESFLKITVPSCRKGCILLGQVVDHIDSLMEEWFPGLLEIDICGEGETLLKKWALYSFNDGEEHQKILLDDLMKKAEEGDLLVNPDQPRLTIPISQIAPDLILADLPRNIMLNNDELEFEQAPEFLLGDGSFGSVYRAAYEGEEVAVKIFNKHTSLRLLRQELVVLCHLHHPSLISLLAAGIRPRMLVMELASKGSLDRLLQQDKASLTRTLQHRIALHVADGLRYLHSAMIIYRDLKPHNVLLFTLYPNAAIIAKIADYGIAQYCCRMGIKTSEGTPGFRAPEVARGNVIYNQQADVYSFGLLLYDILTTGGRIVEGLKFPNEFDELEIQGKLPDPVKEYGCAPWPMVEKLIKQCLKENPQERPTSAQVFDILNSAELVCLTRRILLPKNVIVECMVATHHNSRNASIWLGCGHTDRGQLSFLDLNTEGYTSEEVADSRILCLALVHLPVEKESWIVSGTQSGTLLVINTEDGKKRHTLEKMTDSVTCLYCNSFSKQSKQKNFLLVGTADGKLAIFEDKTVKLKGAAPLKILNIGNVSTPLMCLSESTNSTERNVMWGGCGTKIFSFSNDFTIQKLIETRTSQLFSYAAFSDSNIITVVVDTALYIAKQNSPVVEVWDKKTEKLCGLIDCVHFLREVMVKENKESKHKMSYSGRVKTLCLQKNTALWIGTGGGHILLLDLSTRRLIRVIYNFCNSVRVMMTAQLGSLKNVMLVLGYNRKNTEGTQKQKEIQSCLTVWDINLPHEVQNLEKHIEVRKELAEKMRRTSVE

| SMILES | IC50 |
| --- | --- |
| CC(C)OC1CCC(COc2nc(Nc3ccc(N4C[C@@H](C)O[C@@H](C)C4)cc3)ncc2F)CC1 (mixture of isomers) [Example 279, N-(4-((2S,6R)-2,6-dimethylmorpholino)phenyl)-5-fluoro-4-((4-isopropoxycyclohexyl)methoxy)pyrimidin-2-amine] | 200 to 400 nM |
| Cc1nn(C(C)(C)C#N)cc1Nc1ncc(C#N)c(OCC2CC(F)(F)C2)n1 [Example 155, 2-((1-(2-cyanopropan-2-yl)-3-methyl-1H-pyrazol-4-yl)amino)-4-((3,3-difluorocyclobutyl)methoxy)pyrimidine-5-carbonitrile] | 50 to 200 nM |
| Cc1nn(C(C)(C)C#N)cc1Nc1nccc(OCC2(F)CCNCC2)n1 [Example 19, 2-(4-((4-((4-fluoropiperidin-4-yl)methoxy)pyrimidin-2-yl)amino)-3-methyl-1H-pyrazol-1-yl)-2-methylpropanenitrile] | 200 to 400 nM |
| Cc1nn(C(C)(C)C#N)cc1Nc1ncc(F)c(OC[C@H]2CC[C@H](O)CC2)n1 [Example 125, 2-(4-((5-fluoro-4-(((1R,4R)-4-hydroxycyclohexyl)methoxy)pyrimidin-2-yl)amino)-3-methyl-1H-pyrazol-1-yl)-2-methylpropanenitrile] | < 50 nM |
| CC(=O)N1CCC(COc2nc(Nc3ccc(N4C[C@@H](C)O[C@@H](C)C4)cc3)ncc2F)C(F)C1 (single isomer, unassigned) [Example 175] | 200 to 400 nM |
| Cn1ccc(Nc2nccc(OC[C@H]3CC[C@H](N)CC3)n2)n1 [Example 4, 4-(((1R,4R)-4-aminocyclohexyl)methoxy)-N-(1-methyl-1H-pyrazol-3-yl)pyrimidin-2-amine] | 50 to 200 nM |
| CN[C@H]1CC[C@H](COc2nc(Nc3ccc(N4CCOCC4)cc3)ncc2F)CC1 [Example 42, 5-fluoro-4-(((1R,4R)-4-(methylamino)cyclo-hexyl)methoxy)-N-(4-morpholinophenyl) pyrimidin-2-amine] | < 50 nM |
| Cc1nn(C2CC2)cc1Nc1ncc(F)c(OC[C@H]2CC[C@H](O)CC2)n1 [Example 231, (1R,4R)-4-(((2-((1-cyclopropyl-3-methyl-1H-pyrazol-4-yl)amino)-5-fluoropyrimidin-4-yl)oxy)methyl)cyclohexan-1-ol] | 50 to 200 nM |
| FC(F)CN[C@H]1CC[C@H](COc2ccnc(Nc3ccc(N4CCOCC4)cc3)n2)CC1 [Example 103, 4-(((1R,4R)-4-((2,2-difluoro-ethyl)amino)cyclohexyl)methoxy)-N-(4-morpholino-phenyl) pyrimidin-2-amine] | < 50 nM |
| CC(=O)N[C@H]1CC[C@H](COc2nc(Nc3cn(C(C)C)nc3C)ncc2F)CC1 [Example 195, N-((1R,4R)-4-(((5-fluoro-2-((1-isopropyl-3-methyl-1H-pyrazol-4-yl)amino)pyrimidin-4-yl)oxy)methyl)cyclo-hexyl)acetamide] | < 50 nM |
| OC12CCC(COc3ccnc(Nc4ccc(N5CCOCC5)cc4)n3)(CC1)CC2 [Example 140, 4-(((2-((4-morpholinophenyl)amino)pyrimidin-4-yl)oxy)methyl)bicyclo[2.2.2]octan-1-ol] | > 400 nM |
| Fc1cnc(Nc2ccc(N3CCOCC3)cc2)nc1OCC1(F)CCNCC1 [Example 24, 5-fluoro-4-((4-fluoropiperidin-4-yl)methoxy)-N-(4-morpholinophenyl) pyrimidin-2-amine] | 50 to 200 nM |
| Cc1c(Nc2ncc(Cl)c(OCC3CCN(C)CC3)n2)cnn1C1CC(C#N)C1 (stereo not drawn) [Example 58, 3-(4-((5-chloro-4-((1-methylpiperidin-4-yl)methoxy)pyrimidin-2-yl)amino)-5-methyl-1H-pyrazol-1-yl)cyclobutane-1-carbonitrile] | < 50 nM |
| COc1cnc(Nc2ccc(N3CCOCC3)cc2)nc1OCC1CCCCC1 [Example 152, 4-(cyclohexylmethoxy)-5-methoxy-N-(4-morpholinophenyl)pyrimidin-2-amine] | < 50 nM |
| Cc1nn(C2CC(C#N)C2)cc1Nc1ncc(Cl)c(OCC2CCN(C)CC2)n1 (stereo not drawn) [Example 59, 3-(4-((5-chloro-4-((1-methylpiperidin-4-yl)methoxy)pyrimidin-2-yl)amino)-3-methyl-1H-pyrazol-1-yl)cyclobutane-1-carbonitrile] | 200 to 400 nM |
| Cc1nn(C(C)(C)C#N)cc1Nc1ncc(F)c(OCC2CCNCC2)n1 [Example 18, 2-(4-((5-fluoro-4-(piperidin-4-ylmethoxy)pyrimidin-2-yl)amino)-3-methyl-1H-pyrazol-1-yl)-2-methylpropanenitrile] | 50 to 200 nM |
| Cc1nn(C(C)(C)C#N)cc1Nc1ncc(F)c(OCC2CS(=O)(=O)C2)n1 [Example 289, 2-(4-((4-((1,1-dioxidothietan-3-yl)methoxy)-5-fluoropyrimidin-2-yl)amino)-3-methyl-1H-pyrazol-1-yl)-2-methylpropanenitrile] | > 400 nM |

| SMILES | IC50 |
| --- | --- |
| Clc1cnc(Nc2ccc(N3CCOCC3)cc2)nc1OCC1CCCCC1 [Example 147, 5-chloro-4-(cyclohexylmethoxy)-N-(4-morpholinophenyl)pyrimidin-2-amine] | < 50 nM |
| CC(C)n1cc(Nc2ncc(F)c(OC[C@H]3CC[C@H](O)CC3)n2)cn1 [Example 218, (1R,4R)-4-(((5-fluoro-2-((1-isopropyl-1H-pyrazol-4-yl)amino)pyrimidin-4-yl)oxy)methyl)cyclohexan-1-ol] | 50 to 200 nM |
| CCn1cc(Nc2ncc(F)c(OC[C@H]3CC[C@H](O)CC3)n2)cn1 [Example 217, (1R,4R)-4-(((2-((1-ethyl-1H-pyrazol-4-yl)amino)-5-fluoropyrimidin-4-yl)oxy)methyl)cyclohexan-1-ol] | 50 to 200 nM |
| CC(=O)N[C@H]1CC[C@H](COc2nc(Nc3cn(C4CC4)nc3Cl)ncc2F)CC1 [Example 203, N-((1R,4R)-4-(((2-((3-chloro-1-cyclopropyl-1H-pyrazol-4-yl)amino)-5-fluoropyrimidin-4-yl)oxy)methyl)cyclo-hexyl)acetamide] | < 50 nM |
| Cn1cc(Nc2ncc(F)c(OC[C@H]3CC[C@H](O)CC3)n2)c(Cl)n1 [Example 237, (1R,4R)-4-(((2-((3-chloro-1-methyl-1H-pyrazol-4-yl)amino)-5-fluoropyrimidin-4-yl)oxy)methyl)cyclohexan-1-ol] | 50 to 200 nM |
| CN[C@H]1CC[C@H](COc2nc(Nc3cn(C4CC(C#N)C4)nc3C)ncc2Cl)CC1 (stereo partly drawn) [Example 40, 3-(4-((5-chloro-4-(((1R,4R)-4-(methylamino)cyclo-hexyl)methoxy)py-rimidin-2-yl)amino)-3-methyl-1H-pyrazol-1-yl)cyclobutane-1-carbonitrile] | < 50 nM |
| CC(=O)N1CCC(COc2nc(Nc3ccc(N4C[C@@H](C)O[C@@H](C)C4)cc3)ncc2F)C(F)C1 (single isomer, unassigned) [Example 174] | 200 to 400 nM |
| Cc1nn(C2CC(C#N)C2)cc1Nc1ncc(Cl)c(OCC2CC3(COC3)C2)n1 (stereo not drawn) [Example 151, 3-(4-((4-((2-oxaspiro[3.3]heptan-6-yl)methoxy)-5-chloropyrimidin-2-yl)amino)-3-methyl-1H-pyrazol-1-yl)cyclobutane-1-carbonitrile] | < 50 nM |
| OCCn1ncc(Nc2ncc(F)c(OC[C@H]3CC[C@H](O)CC3)n2)c1Cl [Example 240, (1R,4R)-4-(((2-((5-chloro-1-(2-hydroxyethyl)-1H-pyrazol-4-yl)amino)-5-fluoropyrimidin-4-yl)oxy)methyl)cyclohexan-1-ol] | 50 to 200 nM |
| Fc1cnc(Nc2ccc(N3CCOCC3)cc2)nc1OCC1CCC(OC(F)(F)F)CC1 (single isomer, unassigned) [Example 281, 5-fluoro-N-(4-morpholinophenyl)-4-((4-(trifluoromethoxy)cyclohexyl)methoxy)pyrimidin-2-amine] | > 400 nM |
| COc1cnc(Nc2ccc(N3CCOCC3)cc2)nc1OC[C@H]1CC[C@H](CN)CC1 [Example 13, 4-(((1R,4R)-4-(aminomethyl)cyclohexyl)methoxy)-5-methoxy-N-(4-morpholinophenyl) pyrimidin-2-amine] | < 50 nM |
| Cc1nn(C(C)(C)C#N)cc1Nc1ncc(Cl)c(OCC2CCC(C)(O)CC2)n1 (stereo not drawn) [Example 135, 2-(4-((5-chloro-4-((4-hydroxy-4-methylcyclohexyl)methoxy)pyrimidin-2-yl)amino)-3-methyl-1H-pyrazol-1-yl)-2-methylpropanenitrile] | < 50 nM |
| N[C@H]1CC[C@@H](COc2nc(Nc3ccc(N4CCOCC4)cc3)ncc2Cl)C1 [Example 16, 4-(((1R,3S)-3-aminocyclopentyl)methoxy)-5-chloro-N-(4-morpholinophenyl) pyrimidin-2-amine] | < 50 nM |
| CN[C@H]1CC[C@H](COc2ccnc(Nc3ccc(N4CCOCC4)cc3)n2)CC1 [Example 31, 4-(((1R,4R)-4-(methylamino)cyclo-hexyl)methoxy)-N-(4-morpholinophenyl) pyrimidin-2-amine] | < 50 nM |
| CN[C@H]1CC[C@H](COc2nc(Nc3ccc(N4CCOCC4)cc3)ncc2OC)CC1 [Example 35, 5-methoxy-4-(((1R,4R)-4-(methylamino)cyclo-hexyl)methoxy)-N-(4-morpholinophenyl) pyrimidin-2-amine] | < 50 nM |
| Cc1nn(C(C)C)cc1Nc1ncc(F)c(OC[C@H]2CC[C@H](O)CC2)n1 [Example 230, (1R,4R)-4-(((5-fluoro-2-((1-isopropyl-3-methyl-1H-pyrazol-4-yl)amino)pyrimidin-4-yl)oxy)methyl)cyclohexan-1-ol] | 50 to 200 nM |
